The experiment relates to M. tuberculosis H37Rv (ATCC 27294). Briefly: In vitro anti-tuberculosis screening, BACTEC 460 radiometric system, percent inhibition of growth. Type of experiment: cell-based, Mycobacterium tuberculosis. The note with it: Mtb H37Rv; for inhibition at 12.5 µg/mL: Mycobacterium tuberculosis.

The text below walks through data of US6677350B1, “Beta-fluoroethyl thiourea compounds and use” (priority 1999, dated 2004).

Several values for one entry are separate records, joined by “and”; a condition that tells them apart may be missing. Equal values may be shown once. Read-outs that look alike come from different tables or passages of the source.

For the molecule `CCOc1cc(O)c(C(=O)C=Cc2ccccc2)c(OCC)c1` [Compound 14], the “Activity % inhibition at 12.5 μg/mL (chalcones)” value (12.5 μg/mL, BACTEC 12B medium) is 0%.
With `O=C1CC(c2ccccc2)Oc2ccc(Cl)cc21` (centres unmarked) [Compound 138], for the setting “12.5 μg/mL, BACTEC 12B medium”, the “Activity % Inhibition at 12.5 μg/mL (flavanones)” value was determined as 30%.
In the case of `O=c1cc(-c2ccccc2)oc2cc(Br)ccc12` [Compound 106], the “anti-TB activity in words” value (12.5 μg/mL) was “weakly active or inactive”. The “Activity % Inhibition at 12.5 μg/mL (flavones)” value (12.5 μg/mL, BACTEC 12B medium) stood at 15%.
`O=C1CC(c2ccccc2)Oc2cc(F)ccc21` (centres unmarked) [Compound 143]: the “Activity % Inhibition at 12.5 μg/mL (flavanones)” value (12.5 μg/mL, BACTEC 12B medium) is given as 7%.
Regarding `O=C1c2ccccc2OC(c2ccccc2)C1(Br)Br` (centres unmarked) [Compound 148], the “Activity % Inhibition at 12.5 μg/mL (flavanones)” value (12.5 μg/mL, BACTEC 12B medium) is 0%.
`COc1ccc(-c2cc(=O)c3ccc(OC)cc3o2)cc1` [Compound 119]: the “Activity % Inhibition at 12.5 μg/mL (flavones)” value (12.5 μg/mL, BACTEC 12B medium) is reported as 0%.
Consider `COc1ccc(-c2oc3c(I)cccc3c(=O)c2O)cc1` [Compound 113], for which the “Activity % Inhibition at 12.5 μg/mL (flavones)” value (12.5 μg/mL, BACTEC 12B medium) amounted to 6%.
The same measure, in the same setting: the result for `COc1ccc(-c2oc3ccccc3c(=O)c2Br)cc1` [Compound 96] reads 28%; that for `COc1ccc(-c2cc(=O)c3cc(I)ccc3o2)cc1` [Compound 107], 15%.
In the case of `COc1ccc(C=CC(=O)c2ccc(F)cc2O)cc1` [Compound 22], the “Activity % inhibition at 12.5 μg/mL (chalcones)” value (12.5 μg/mL, BACTEC 12B medium) is reported as 63%.
For the molecule `COc1ccc(C=CC(=O)c2ccc(Cl)cc2O)cc1` [Compound 28], the “Activity % inhibition at 12.5 μg/mL (chalcones)” value (12.5 μg/mL, BACTEC 12B medium) is given as 57%. Also, the “inhibition of the growth of Mtb” value (drug concentration 12.5 μg/mL) is listed as 57%.
For the molecule `O=C(O)c1ccc(O)c(C(=O)C=Cc2cccc(I)c2)c1` [Compound 50], the “Activity % inhibition at 12.5 μg/mL (chalcones)” value (12.5 μg/mL, BACTEC 12B medium) turned out to be 0%. Also, the “inhibition of the growth of Mtb” value (drug concentration 12.5 μg/mL) is listed as 0%.
Regarding `COc1ccc(/C=C/C(=O)c2ccc(OC)cc2O)cc1` [Compound 9], the “Activity % inhibition at 12.5 μg/mL (chalcones)” value (12.5 μg/mL, BACTEC 12B medium) stood at 32%.
Turning to `O=c1cc(-c2ccc(I)cc2)oc2ccccc12` [Compound 84], the “anti-TB activity in words” value (12.5 μg/mL) is “weakly active or inactive”. Further, the “Activity % Inhibition at 12.5 μg/mL (flavones)” value (12.5 μg/mL, BACTEC 12B medium) came to 51%. The “inhibition of the growth of Mtb” value (drug concentration 12.5 μg/mL) was 51%.
With `O=C1c2ccccc2OC(c2cccc(Cl)c2)C1O` (centres unmarked) [Compound 135], the “Activity % Inhibition at 12.5 μg/mL (flavanones)” value (12.5 μg/mL, BACTEC 12B medium) is on record as 63%.
In the case of “3′′′-Nitro-C3-O-C4′′′′--Biflavone [Compound 154]”, under “12.5 μg/mL, BACTEC 12B medium”, the “Activity % Inhibition at 12.5 μg/mL (biflavonoids)” value stood at 61%.
On the same count and under the same terms, the value for `O=C1CC(c2ccc(O)cc2)Oc2cc(O)c(-c3c(O)cc(O)c4c3OC(c3ccc(O)cc3)CC4=O)c(O)c21` (centres unmarked) [Compound 168, Rhusflavanone] was 0%.
In the case of `COc1ccc2c(c1)OC(c1ccc(Cl)cc1)CC2=O` (centres unmarked) [Compound 137], the “Activity % Inhibition at 12.5 μg/mL (flavanones)” value (12.5 μg/mL, BACTEC 12B medium) stood at 48%.
On to `COc1ccc(-c2oc3cc(F)ccc3c(=O)c2O)cc1` [Compound 85], for which the “anti-TB activity in words” value (12.5 μg/mL) was “did not change the activity”. Further, the “Activity % Inhibition at 12.5 μg/mL (flavones)” value (12.5 μg/mL, BACTEC 12B medium) was 50%.
Consider `COc1ccc(/C=C/C(=O)c2cc(Br)ccc2O)cc1` [Compound 37], for which the “Activity % inhibition at 12.5 μg/mL (chalcones)” value (12.5 μg/mL, BACTEC 12B medium) turned out to be 23%. For the same molecule, the “inhibition of the growth of Mtb” value (drug concentration 12.5 μg/mL) is 23%.
On to `CN(C)c1ccc(/C=C/C(=O)c2ccccn2)cc1` [Compound 62], for which, under “12.5 μg/mL, BACTEC 12B medium”, the “Activity % inhibition at 12.5 μg/mL (chalcone-like compounds)” value came to 16%.
With `Nc1cccc(/C=C/C(=O)c2ccccc2O)c1` [Compound 11], the “Activity % inhibition at 12.5 μg/mL (chalcones)” value (12.5 μg/mL, BACTEC 12B medium) came to 11%.
For `O=C(/C=C/c1ccc(Cl)cc1)c1ccccc1O` [Compound 27], the “Activity % inhibition at 12.5 μg/mL (chalcones)” value (12.5 μg/mL, BACTEC 12B medium) amounted to 67%. For the same molecule, the “inhibition of the growth of Mtb” value (drug concentration 12.5 μg/mL) is given as 67%.
With `COc1ccc(O)c(C(=O)/C=C/c2ccco2)c1` [Compound 69], the “Activity % inhibition at 12.5 μg/mL (chalcone-like compounds)” value (12.5 μg/mL, BACTEC 12B medium) is 0%.
As to `O=C(/C=C/c1ccccc1)c1cc(I)ccc1O` [Compound 42], the “Activity % inhibition at 12.5 μg/mL (chalcones)” value (12.5 μg/mL, BACTEC 12B medium) is given as 51%. Also, the “inhibition of the growth of Mtb” value (drug concentration 12.5 μg/mL) is 51% and 52%.
`COc1ccc([C@@H]2CC(=O)c3c(OC)cc(OC)c([C@H]4C(=O)c5c(OC)cc(OC)cc5O[C@@H]4c4ccc(OC)cc4)c3O2)cc1` [Compound 153, GB-1a hexamethylether]: the “Activity % Inhibition at 12.5 μg/mL (biflavonoids)” value (12.5 μg/mL, BACTEC 12B medium) stood at 87%. Besides, for the setting “drug concentration 12.5 μg/mL”, the “inhibition of the growth of Mtb” value stood at 87%.
For `COc1ccc(-c2cc(=O)c3c(OC)cc(OC)cc3o2)cc1` [Compound 109], under “12.5 μg/mL, BACTEC 12B medium”, the “Activity % Inhibition at 12.5 μg/mL (flavones)” value stood at 12%.
Consider Suceedaneaflavanone [Compound 169], for which the “Activity % Inhibition at 12.5 μg/mL (biflavonoids)” value (12.5 μg/mL, BACTEC 12B medium) was found to be 0%.
Turning to `O=C(C=Cc1ccc(Br)cc1)c1ccccc1O` [Compound 33], the “Activity % inhibition at 12.5 μg/mL (chalcones)” value (12.5 μg/mL, BACTEC 12B medium) is on record as 70%. For the same molecule, the “inhibition of the growth of Mtb” value (drug concentration 12.5 μg/mL) was found to be 70%.
With `COc1ccc(-c2cc(=O)c3ccc(I)cc3o2)cc1` [Compound 128], the “Activity % Inhibition at 12.5 μg/mL (flavones)” value (12.5 μg/mL, BACTEC 12B medium) is given as 0%.
As for `COc1ccc(-c2cc(=O)c3c(OC)cc(OC)c(I)c3o2)cc1` [Compound 125], where the note is “12.5 μg/mL, BACTEC 12B medium”, the “Activity % Inhibition at 12.5 μg/mL (flavones)” value is reported as 0%.
As to `COc1ccccc1C=CC(=O)c1ccccc1O` [Compound 8], the “Activity % inhibition at 12.5 μg/mL (chalcones)” value (12.5 μg/mL, BACTEC 12B medium) amounted to 39%.
As to `O=c1c(O)c(-c2ccccc2)oc2ccccc12` [Compound 92, 3-hydroxyflavone], the inhibition at 12.5 µg/mL by setting is: (12.5 μg/mL, BACTEC 12B medium, read-out: Activity % Inhibition at 12.5 μg/mL (flavones)) 38%; (drug concentration 12.5 μg/mL, read-out: inhibition of the growth of Mtb) 38%.
For the molecule `O=C(/C=C/c1cc2ccccc2[nH]1)c1ccncc1` [Compound 64], the “Activity % inhibition at 12.5 μg/mL (chalcone-like compounds)” value (12.5 μg/mL, BACTEC 12B medium) is 12%.
In the case of `O=c1c(O)c(-c2ccccc2)oc2c(F)cccc12` [Compound 90], the “Activity % Inhibition at 12.5 μg/mL (flavones)” value (12.5 μg/mL, BACTEC 12B medium) amounted to 43%.
On to `COc1ccc(C(=O)/C=C/c2ccncc2)cc1` [Compound 70], for which the “Activity % inhibition at 12.5 μg/mL (chalcone-like compounds)” value (12.5 μg/mL, BACTEC 12B medium) is 0%.
With `COc1ccc(-c2cc(=O)c3c(OC)cc(OC)c([C@@H]4C(=O)c5c(OC)cc(OC)cc5O[C@H]4c4ccc(OC)cc4)c3o2)cc1` [Compound 152, Volkensiflavone hexamethylether], the “Activity % Inhibition at 12.5 μg/mL (biflavonoids)” value (12.5 μg/mL, BACTEC 12B medium) is 95%. For the same molecule, the “inhibition of the growth of Mtb” value (drug concentration 12.5 μg/mL) was determined as 95%.
`O=c1cc(-c2ccccc2)oc2c(I)cccc12` [Compound 114]: the “anti-TB activity in words” value (12.5 μg/mL) was “weakly active or inactive”. Moreover, the “Activity % Inhibition at 12.5 μg/mL (flavones)” value (12.5 μg/mL, BACTEC 12B medium) was 5%.
`Nc1ccc(O)c(C(=O)/C=C/c2ccccc2)c1` [Compound 12]: the “Activity % inhibition at 12.5 μg/mL (chalcones)” value (12.5 μg/mL, BACTEC 12B medium) is reported as 6%. Moreover, for the setting “drug concentration 12.5 μg/mL”, the “inhibition of the growth of Mtb” value is 6%.
`COc1ccc(C(=O)/C=C/c2cccc(I)c2)c(O)c1` [Compound 43]: the “Activity % inhibition at 12.5 μg/mL (chalcones)” value (12.5 μg/mL, BACTEC 12B medium) came to 47%. In addition, the “inhibition of the growth of Mtb” value (drug concentration 12.5 μg/mL) is reported as 47%.
`O=c1cc(-c2ccc(Br)cc2)oc2ccccc12` [Compound 97]: the “anti-TB activity in words” value (12.5 μg/mL) was “weakly active or inactive”. For the same molecule, the “Activity % Inhibition at 12.5 μg/mL (flavones)” value (12.5 μg/mL, BACTEC 12B medium) is 26%. For the same molecule, the “inhibition of the growth of Mtb” value (drug concentration 12.5 μg/mL) is on record as 26%.
In the case of `O=C(/C=C/c1ccccc1)c1cc(Cl)ccc1O` [Compound 26], the “Activity % inhibition at 12.5 μg/mL (chalcones)” value (12.5 μg/mL, BACTEC 12B medium) is 67%. Besides, under “drug concentration 12.5 μg/mL”, the “inhibition of the growth of Mtb” value worked out at 67%.
As to `O=C1CC(c2ccccc2)Oc2ccc(Br)cc21` (centres unmarked) [Compound 142], under “12.5 μg/mL, BACTEC 12B medium”, the “Activity % Inhibition at 12.5 μg/mL (flavanones)” value turned out to be 8%.
For the molecule `O=C(/C=C/c1ccccc1)c1cccc(Br)c1O` [Compound 32], the “Activity % inhibition at 12.5 μg/mL (chalcones)” value (12.5 μg/mL, BACTEC 12B medium) stood at 79%. For the same molecule, the “inhibition of the growth of Mtb” value (drug concentration 12.5 μg/mL) is 79%.
As for `O=c1cc(-c2ccccc2O)oc2ccccc12` [Compound 116], the “Activity % Inhibition at 12.5 μg/mL (flavones)” value (12.5 μg/mL, BACTEC 12B medium) is given as 1%.
